Experimental findings from patent US20250288683A1, “TETRAHYDROISOQUINOLINE HETEROBIFUNCTIONAL BCL-XL DEGRADERS” (Treeline Biosciences, Inc., priority 2022, published 2025) are described below.

T1 sequence (Q07817 whole entry): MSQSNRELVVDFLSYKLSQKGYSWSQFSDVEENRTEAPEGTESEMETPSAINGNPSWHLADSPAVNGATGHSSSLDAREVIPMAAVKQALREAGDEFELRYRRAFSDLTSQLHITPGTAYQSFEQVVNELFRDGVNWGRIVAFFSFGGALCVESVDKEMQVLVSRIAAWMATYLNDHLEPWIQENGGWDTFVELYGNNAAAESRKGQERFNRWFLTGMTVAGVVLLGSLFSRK

The test addresses T1, Human BCL-XL protein (N-terminal HiBiT tagged BCL-XL in HT1080 cells) (Homo sapiens, UniProt Q07817).
T1 construct: expressed in transfected cells; host or cells: HT-1080 (ATCC CCL-121), stably transduced with lentivirus pLV-UBC-N-HiBiT-BCL-XL-PGK-puro and selected with puromycin
The test can be described thus: HiBiT based degradation assay. As to conditions: HT1080 cells expressing N-terminal HiBiT tagged BCL-XL, 24 h, normalized with DMSO control. The class given is cell-based.
For `Cc1ncsc1-c1ccc([C@H](C)NC(=O)[C@@H]2C[C@@H](O)CN2C(=O)[C@@H](NC(=O)C[C@H]2CC[C@@H](Oc3cccc(-c4ccc(N5CCc6cccc(C(=O)Nc7nc8ccccc8s7)c6C5)nc4C(=O)O)c3C)CC2)C(C)(C)C)cc1` [Compound 116b, 6-(8-(benzo[d]thiazol-2-ylcarbamoyl)-3,4-dihydroisoquinolin-2 (1H)-yl)-3-(3-(((1R,4s)-4-(2-(((S)-1-((2S,4R)-4-hydroxy-2-(((S)-1-(4-(4-methylthiazol-5-yl)phenyl)ethyl)carbamoyl)pyrrolidin-1-yl)-3,3-dimethyl-1-oxobutan-2-yl)amino)-2-oxoethyl)cyclohexyl)oxy)-2-methylphenyl)picolinic acid], the “Ymin (24 h)” value is “B (50% ≤ Ymin < 70%)”.

With `Cc1ncsc1-c1ccc([C@H](C)NC(=O)[C@@H]2C[C@@H](O)CN2C(=O)[C@@H](NC(=O)C(F)(F)C[C@H]2CC[C@H](Oc3cccc(-c4ccc(N5CCc6cccc(C(=O)Nc7nc8ccccc8s7)c6C5)nc4C(=O)O)c3C)CC2)C(C)(C)C)cc1` [Compound 117a, 6-(8-(benzo[d]thiazol-2-ylcarbamoyl)-3,4-dihydroisoquinolin-2 (1H)-yl)-3-(3-(((1S,4r)-4-(2,2-difluoro-3-(((S)-1-((2S,4R)-4-hydroxy-2-(((S)-1-(4-(4-methylthiazol-5-yl)phenyl)ethyl)carbamoyl)pyrrolidin-1-yl)-3,3-dimethyl-1-oxobutan-2-yl)amino)-3-oxopropyl)cyclohexyl)oxy)-2-methylphenyl)picolinic acid], the “Ymin (24 h)” value is “B (50% ≤ Ymin < 70%)”.

Take `CC(=O)O[C@@H]1C[C@@H](C(=O)N[C@@H](C)c2ccc(-c3scnc3C)cc2)N(C(=O)[C@@H](NC(=O)CCCc2ccc(Oc3cccc(-c4ccc(N5CCc6cccc(C(=O)Nc7nc8ccccc8s7)c6C5)nc4C(=O)O)c3C)cc2)C(C)(C)C)C1` [Compound 118a, 3-[3-[4-[4-[[(1S)-1-[(2S,4R)-4-acetoxy-2-[[(1S)-1-[4-(4-methylthiazol-5-yl)phenyl]ethyl]carbamoyl]pyrrolidine-1-carbonyl]-2,2-dimethyl-propyl]amino]-4-oxo-butyl]phenoxy]-2-methyl-phenyl]-6-[8-(1,3-benzothiazol-2-ylcarbamoyl)-3,4-dihydro-1H-isoquinolin-2-yl]pyridine-2-carboxylic acid]: the “Ymin (24 h)” value is “B (50% ≤ Ymin < 70%)”.

On to `CC(=O)O[C@@H]1C[C@@H](C(=O)N[C@@H](C)c2ccc(-c3scnc3C)cc2)N(C(=O)[C@@H](NC(=O)C[C@H]2CC[C@H](Oc3cccc(-c4ccc(N5CCc6cccc(C(=O)Nc7nc8ccccc8s7)c6C5)nc4C(=O)O)c3C)CC2)C(C)(C)C)C1` [Compound 119a, 3-(3-(((1S,4r)-4-(2-(((S)-1-((2S,4R)-4-acetoxy-2-(((S)-1-(4-(4-methylthiazol-5-yl)phenyl)ethyl)carbamoyl)pyrrolidin-1-yl)-3,3-dimethyl-1-oxobutan-2-yl)amino)-2-oxoethyl)cyclohexyl)oxy)-2-methylphenyl)-6-(8-(benzo[d]thiazol-2-ylcarbamoyl)-3,4-dihydroisoquinolin-2 (1H)-yl)picolinic acid], for which the “Ymin (24 h)” value was “B (50% ≤ Ymin < 70%)”.

As for `Cc1ncsc1-c1ccc([C@@H](NC(=O)[C@@H]2C[C@@H](O)CN2C(=O)[C@@H](NC(=O)CCCc2ccc(Oc3cccc(-c4ccc(N5CCc6cccc(C(=O)Nc7nc8ccccc8s7)c6C5)nc4C(=O)O)c3C)cc2)C(C)(C)C)C(F)(F)F)cc1` [Compound 120a, 6-[8-(1,3-benzothiazol-2-ylcarbamoyl)-3,4-dihydro-1H-isoquinolin-2-yl]-3-[3-[4-[4-[[(1S)-1-[(2S,4R)-4-hydroxy-2-[[(1R)-2,2,2-trifluoro-1-[4-(4-methylthiazol-5-yl)phenyl]ethyl]carbamoyl]pyrrolidine-1-carbonyl]-2,2-dimethyl-propyl]amino]-4-oxo-butyl]phenoxy]-2-methyl-phenyl]pyridine-2-carboxylic acid], the “Ymin (24 h)” value was “A (Ymin < 50%)”.

For `Cc1ncsc1-c1ccc([C@H](C)NC(=O)[C@@H]2C[C@@H](O)CN2C(=O)[C@@H](NC(=O)CCCc2ccc(Oc3cccc(-c4ccc(N5CCc6cccc(C(=O)Nc7nc8ccccc8s7)c6C5)nc4C(=O)O)c3C)cc2)C(C)(C)C)nc1` [Compound 121a, 6-[8-(1,3-benzothiazol-2-ylcarbamoyl)-3,4-dihydro-1H-isoquinolin-2-yl]-3-[3-[4-[4-[[(1S)-1-[(2S,4R)-4-hydroxy-2-[[(1S)-1-[5-(4-methylthiazol-5-yl)-2-pyridyl]ethyl]carbamoyl]pyrrolidine-1-carbonyl]-2,2-dimethyl-propyl]amino]-4-oxo-butyl]phenoxy]-2-methyl-phenyl]pyridine-2-carboxylic acid], the “Ymin (24 h)” value is given as “A (Ymin < 50%)”.

On to `Cc1ncsc1-c1ccc([C@H](C)NC(=O)[C@@H]2C[C@@H](O)CN2C(=O)[C@@H](NC(=O)CN2CCC(Oc3cccc(-c4ccc(N5CCc6cccc(C(=O)Nc7nc8ccccc8s7)c6C5)nc4C(=O)O)c3C)CC2)C(C)(C)C)cc1` [Compound 122a, 6-[8-(1,3-benzothiazol-2-ylcarbamoyl)-3,4-dihydro-1H-isoquinolin-2-yl]-3-[3-[[1-[2-[[(1S)-1-[(2S,4R)-4-hydroxy-2-[[(1S)-1-[4-(4-methylthiazol-5-yl)phenyl]ethyl]carbamoyl]pyrrolidine-1-carbonyl]-2,2-dimethyl-propyl]amino]-2-oxo-ethyl]-4-piperidyl]oxy]-2-methyl-phenyl]pyridine-2-carboxylic acid], for which the “Ymin (24 h)” value is listed as “B (50% ≤ Ymin < 70%)”.

`Cc1ncsc1-c1ccc([C@H](C)NC(=O)[C@@H]2C[C@@H](O)CN2C(=O)[C@@H](NC(=O)CN2CCC(CCOc3cccc(-c4ccc(N5CCc6cccc(C(=O)Nc7nc8ccccc8s7)c6C5)nc4C(=O)O)c3C)CC2)C(C)(C)C)cc1` [Compound 123a, 6-(8-(benzo[d]thiazol-2-ylcarbamoyl)-3,4-dihydroisoquinolin-2 (1H)-yl)-3-(3-(2-(1-(2-(((S)-1-((2S,4R)-4-hydroxy-2-(((S)-1-(4-(4-methylthiazol-5-yl)phenyl)ethyl)carbamoyl)pyrrolidin-1-yl)-3,3-dimethyl-1-oxobutan-2-yl)amino)-2-oxoethyl)piperidin-4-yl)ethoxy)-2-methylphenyl)picolinic acid]: the “Ymin (24 h)” value was “A (Ymin < 50%)”.

`Cc1ncsc1-c1ccc([C@H](C)NC(=O)[C@@H]2C[C@@H](O)CN2C(=O)[C@@H](NC(=O)CN2CCC(CCCOc3cccc(-c4ccc(N5CCc6cccc(C(=O)Nc7nc8ccccc8s7)c6C5)nc4C(=O)O)c3C)CC2)C(C)(C)C)cc1` [Compound 124a, 6-[8-(1,3-benzothiazol-2-ylcarbamoyl)-3,4-dihydro-1H-isoquinolin-2-yl]-3-[3-[3-[1-[2-[[(1S)-1-[(2S,4R)-4-hydroxy-2-[[(1S)-1-[4-(4-methylthiazol-5-yl)phenyl]ethyl]carbamoyl]pyrrolidine-1-carbonyl]-2,2-dimethyl-propyl]amino]-2-oxo-ethyl]-4-piperidyl]propoxy]-2-methyl-phenyl]pyridine-2-carboxylic acid]: the “Ymin (24 h)” value was “A (Ymin < 50%)”.
